Measured values reported in PubChem BioAssay (NCI).
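Cells were grown in 96-well plates and exposed to each compound for 48 hours at five concentrations; endpoints were interpolated linearly between bracketing concentrations, or set to the highest concentration if not reached. At the TGI there is no net growth.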

Tests used:
Test in all cases: NCI anticancer screen, dose series, 48 h
SK-MEL-5 melanoma = tested on: SK-MEL-5 melanoma
RXF 393 renal = tested on: RXF 393 renal
CCRF-CEM leukemia = tested on: CCRF-CEM leukemia
A549 NSCLC = tested on: A549 NSCLC
SF-295 CNS = tested on: SF-295 CNS
SK-MEL-28 melanoma = tested on: SK-MEL-28 melanoma
HCT-15 colon = tested on: HCT-15 colon
MOLT-4 leukemia = tested on: MOLT-4 leukemia
NCI-H226 lung = tested on: NCI-H226 lung
OVCAR-3 ovarian = tested on: OVCAR-3 ovarian
HT29 colon = tested on: HT29 colon
NCI-H23 lung = tested on: NCI-H23 lung
SNB-75 CNS = tested on: SNB-75 CNS
M14 melanoma = tested on: M14 melanoma
HOP-62 NSCLC = tested on: HOP-62 NSCLC
DMS 273 small cell lung = tested on: DMS 273 small cell lung
ACHN renal = tested on: ACHN renal
U251 CNS = tested on: U251 CNS
XF 498 CNS = tested on: XF 498 CNS
SN12C renal = tested on: SN12C renal
KM20L2 colon = tested on: KM20L2 colon
SF-268 CNS = tested on: SF-268 CNS
786-0 renal = tested on: 786-0 renal
DLD-1 colon = tested on: DLD-1 colon
UACC-62 melanoma = tested on: UACC-62 melanoma
HL-60(TB) leukemia = tested on: HL-60(TB) leukemia
HCT-116 colon = tested on: HCT-116 colon
OVCAR-8 ovarian = tested on: OVCAR-8 ovarian
NCI-H460 lung = tested on: NCI-H460 lung
OVCAR-4 ovarian = tested on: OVCAR-4 ovarian
SK-MEL-2 melanoma = tested on: SK-MEL-2 melanoma
SNB-19 CNS = tested on: SNB-19 CNS
COLO 205 colon = tested on: COLO 205 colon
SNB-78 CNS = tested on: SNB-78 CNS
K-562 leukemia = tested on: K-562 leukemia
KM12 colon = tested on: KM12 colon
HCC-2998 colon = tested on: HCC-2998 colon
OVCAR-5 ovarian = tested on: OVCAR-5 ovarian
IGROV1 ovarian = tested on: IGROV1 ovarian
RXF-631 renal = tested on: RXF-631 renal
TK-10 renal = tested on: TK-10 renal
EKVX NSCLC = tested on: EKVX NSCLC
SR leukemia = tested on: SR leukemia
SF-539 CNS = tested on: SF-539 CNS
DMS 114 small cell lung = tested on: DMS 114 small cell lung
CAKI-1 renal = tested on: CAKI-1 renal
RPMI-8226 leukemia = tested on: RPMI-8226 leukemia
HOP-92 NSCLC = tested on: HOP-92 NSCLC
UACC-257 melanoma = tested on: UACC-257 melanoma
NCI-H522 lung = tested on: NCI-H522 lung
MALME-3M melanoma = tested on: MALME-3M melanoma
LOX IMVI melanoma = tested on: LOX IMVI melanoma
SW-620 colon = tested on: SW-620 colon
UO-31 renal = tested on: UO-31 renal
M19-MEL melanoma = tested on: M19-MEL melanoma
LXFL 529 NSCLC = tested on: LXFL 529 NSCLC
SK-OV-3 ovarian = tested on: SK-OV-3 ovarian
HOP-18 NSCLC = tested on: HOP-18 NSCLC

SMILES: COc1cccc2c(SCC(=O)Nc3ccccc3-c3ccccc3NC(=O)CSc3c4ccccc4nc4c(OC)cccc34)c3ccccc3nc12
- TGI (SK-MEL-5 melanoma): > 100 µM
- TGI (RXF 393 renal): > 100 µM
- TGI (CCRF-CEM leukemia): > 100 µM
- TGI (A549 NSCLC): > 100 µM
- TGI (SF-295 CNS): > 100 µM
- TGI (SK-MEL-28 melanoma): > 100 µM
- TGI (HCT-15 colon): > 100 µM
- TGI (MOLT-4 leukemia): > 100 µM
- TGI (NCI-H226 lung): > 100 µM
- TGI (OVCAR-3 ovarian): > 100 µM
- TGI (HT29 colon): > 100 µM
- TGI (NCI-H23 lung): > 100 µM
- TGI (SNB-75 CNS): 44.5 µM
- TGI (M14 melanoma): > 100 µM
- TGI (HOP-62 NSCLC): > 100 µM
- TGI (DMS 273 small cell lung): > 100 µM
- TGI (ACHN renal): > 100 µM
- TGI (U251 CNS): > 100 µM
- TGI (XF 498 CNS): > 100 µM
- TGI (SN12C renal): > 100 µM
- TGI (KM20L2 colon): > 100 µM
- TGI (SF-268 CNS): > 100 µM
- TGI (786-0 renal): > 100 µM
- TGI (DLD-1 colon): > 100 µM
- TGI (UACC-62 melanoma): > 100 µM
- TGI (HL-60(TB) leukemia): > 100 µM
- TGI (HCT-116 colon): > 100 µM
- TGI (OVCAR-8 ovarian): > 100 µM
- TGI (NCI-H460 lung): > 100 µM
- TGI (OVCAR-4 ovarian): > 100 µM
- TGI (SK-MEL-2 melanoma): > 100 µM
- TGI (SNB-19 CNS): > 100 µM
- TGI (COLO 205 colon): > 100 µM
- TGI (SNB-78 CNS): > 100 µM
- TGI (K-562 leukemia): > 100 µM
- TGI (KM12 colon): > 100 µM
- TGI (HCC-2998 colon): > 100 µM
- TGI (OVCAR-5 ovarian): > 100 µM
- TGI (IGROV1 ovarian): > 100 µM
- TGI (RXF-631 renal): > 100 µM
- TGI (TK-10 renal): > 100 µM
- TGI (EKVX NSCLC): 95 µM
- TGI (SR leukemia): > 100 µM
- TGI (SF-539 CNS): > 100 µM
- TGI (DMS 114 small cell lung): > 100 µM

SMILES: CCOC(=O)C(=O)Nc1c(C)cccc1C(C)(C)C
- TGI (CAKI-1 renal): > 100 µM
- TGI (RPMI-8226 leukemia): > 100 µM
- TGI (SK-MEL-5 melanoma): > 100 µM
- TGI (RXF 393 renal): > 100 µM
- TGI (HOP-92 NSCLC): > 100 µM
- TGI (SF-295 CNS): > 100 µM
- TGI (UACC-257 melanoma): > 100 µM
- TGI (SK-MEL-28 melanoma): > 100 µM
- TGI (NCI-H522 lung): > 100 µM
- TGI (HCT-15 colon): > 100 µM
- TGI (MOLT-4 leukemia): > 100 µM
- TGI (NCI-H226 lung): > 100 µM
- TGI (OVCAR-3 ovarian): > 100 µM
- TGI (HT29 colon): > 100 µM
- TGI (NCI-H23 lung): > 100 µM
- TGI (SNB-75 CNS): > 100 µM
- TGI (M14 melanoma): > 100 µM
- TGI (HOP-62 NSCLC): > 100 µM
- TGI (DMS 273 small cell lung): > 100 µM
- TGI (ACHN renal): > 100 µM
- TGI (MALME-3M melanoma): > 100 µM
- TGI (U251 CNS): > 100 µM
- TGI (XF 498 CNS): > 100 µM
- TGI (SN12C renal): > 100 µM
- TGI (KM20L2 colon): > 100 µM
- TGI (SF-268 CNS): > 100 µM
- TGI (786-0 renal): > 100 µM
- TGI (UACC-62 melanoma): > 100 µM
- TGI (HCT-116 colon): > 100 µM
- TGI (OVCAR-8 ovarian): > 100 µM
- TGI (LOX IMVI melanoma): > 100 µM
- TGI (NCI-H460 lung): > 100 µM
- TGI (OVCAR-4 ovarian): > 100 µM
- TGI (SK-MEL-2 melanoma): > 100 µM
- TGI (SNB-19 CNS): > 100 µM
- TGI (COLO 205 colon): > 100 µM
- TGI (SNB-78 CNS): > 100 µM
- TGI (SW-620 colon): > 100 µM
- TGI (K-562 leukemia): > 100 µM
- TGI (UO-31 renal): > 100 µM
- TGI (M19-MEL melanoma): > 100 µM
- TGI (KM12 colon): > 100 µM
- TGI (LXFL 529 NSCLC): > 100 µM
- TGI (HCC-2998 colon): > 100 µM
- TGI (OVCAR-5 ovarian): > 100 µM
- TGI (SK-OV-3 ovarian): > 100 µM
- TGI (IGROV1 ovarian): > 100 µM
- TGI (RXF-631 renal): > 100 µM
- TGI (TK-10 renal): > 100 µM
- TGI (HOP-18 NSCLC): > 100 µM
- TGI (EKVX NSCLC): > 100 µM
- TGI (SF-539 CNS): > 100 µM
- TGI (DMS 114 small cell lung): > 100 µM
